Experimental data published in patent publication EP4523686A1, “A SIGMA-1 RECEPTOR POSITIVE MODULATOR FOR ITS USE IN THE PREVENTION AND THE TREATMENT OF A PATHOLOGY” (priority 2023, dated 2025).

Assays:
Kv channel = test: CEREP in vitro binding assay (pharmacological profiling)
[1] = tested on: panel of 47 receptors and ionophores; test: CEREP screen on a panel of 47 receptors and binding sites; settings: all targets except CB2 receptors, Kv channels, 5-HT3 and 5-HT1B receptors
Experimental: Table 1 represents pharmacological profiling of convolamine which was tested at […] and 1 µM in in vitro binding assays designed with appropriate reference compounds in duplicates at CEREP facility.

[2] = tested on: wfs1ab^KO zebrafish larvae; test: Visual motor response in zebrafish larvae (hyperlocomotor response); format: in vivo
Experimental: The visual motor response assay quantifies the locomotor activity of the zebrafish larvae to light intensity changes. The protocol was previously described (Crouzier et al., 2021a, 2021b, 2022). In brief, 5 dpf larvae were transfered in a 96-well plate (#7701-1651, Whatman) with 300 µl of fish water and placed in a Zebrabox® (ViewPoint, Lissieu, France). The locomotor behavior was monitored using an automated videotracking device equipped with an infra-red (IR) camera under IR light illumination (Zebralab®, Viewpoint). The light protocol was as follow: 30 min of acclimatization in the dark (0% light intensity), then 2 cycles of 10-min duration light ON and 10-min duration light OFF periods. The brightness changes were immediate (<< 1 s). The activity was measured in mm/s. For each larva, the mobility were calculated as mean (OFF-ON) values to account for inter- and intra-group variability in locomotor response.
A phenotypic test described by Crouzier et al. (2022) was performed. […] Compounds were added in the fish water of larvae at 4 dpf for 24 h, and screening parameters included: (1) the lack of toxicity (including grossly observable morphological alterations) after 24 h exposure; (2) the locomotor increase in wfs1ab^KO larvae, expressed as % of V-treated wfs1ab^KO response; (3) the eventual alteration of locomotion in wfs1ab^WT larvae, expressed as % of V-treated wfs1ab^WT response; and (4) the Protection index (PI) calculated as detailed in the Methods section.

Wfs1^ΔExon8 mice = test: Spontaneous alternation in the Y-maze, Wolfram syndrome mouse model; format: in vivo; settings: 1 mg/Kg IP, 20 min before the Y-maze session
Experimental: (§1) The Y-maze is made of grey polyvinylchloride. Each arm is 40 cm long, 13 cm high, 3 cm wide at the bottom, 10 cm wide at the top, and converging at an equal angle. Each mouse was placed at the end of one arm and allowed to move freely through the maze during an 8 min session. The series of arm entries, including possible returns into the same arm, were checked visually. An alternation is defined as entries into all three arms on consecutive occasions. The number of maximum alternations is therefore the total number of arm entries minus two and the percentage of alternation was calculated as (actual alternations / maximum alternations) × 100 (Maurice et al., 1996; Meunier et al., 2006, 2013). Exclusion criteria are locomotion < 10 or percentage of alternation < 25% or > 90%. Animals showing these readouts are excluded from the calculations. Attrition is routinely < 5% in this test.

[3] = tested on: Dizocilpine-induced learning impairments in mice; test: Spontaneous alternation in the Y-maze, Dizocilpine-induced learning impairments; format: in vivo
Experimental: as §1
Due to the chaperone nature of SIG-1R, a SIG-1R positive modulator behaves as an agonist in vivo, particularly on learning and memory abilities in mice (Maurice et al., 2019; Vavers et al., 2019). Convolamine was tested on Dizocilpine-induced learning impairments, a well-characterized SIG-1R-mediated response in mice (Maurice et al., 1994, 2001). The NMDA receptor noncompetitive antagonist Dizocilpine (0.15 mg/kg IP) prevented spontaneous alternation behavior (Fig. 4A) and increased mobility (Fig. 4B) in the Y-maze. […] Co-treatment with the SIG-1R antagonist NE-100 at 1 mg/kg IP, blocked the attenuating effect of Convolamine (Fig. 4C), thus confirming the SIG-1R-mediated effect.

[4] = tested on: Aβ25-35-induced learning impairments in mice; test: Step-through passive avoidance, Aβ25-35 model of Alzheimer's disease; format: in vivo; settings: 0.3-3 mg/kg IP, single administration on day 1
Experimental: Amyloid-β[25-35] peptide (Aβ25-35) was from Eurogentec (Angers, France). It was solubilized in distilled water at 3 mg/ml and stored at -20°C until use. Before injection, the peptide was incubated at 37°C for 4 days, allowing oligomerization. Control injection was performed with vehicle solution (distilled water), and intracerebroventricularly (ICV) injections were done as described previously (Maurice et al., 1996, 2019).
The apparatus is a two-compartments (15 × 20 × 15 cm high) box with one illuminated with white polyvinylchloride walls and the other darkened with black polyvinylchloride walls and a grid floor. A guillotine door separates each compartment. A 60 W lamp positioned 40 cm above the apparatus lights up the white compartment during the experiment. Scrambled foot shocks (0.3 mA for 3 s) could be delivered to the grid floor using a shock generator scrambler (Lafayette Instruments, Lafayette, USA). The guillotine door was initially closed during the training session. Each mouse was placed into the white compartment. After 5 s, the door was raised. […] The step-through latency (STL-Tg), that is, the latency spent to enter the darkened compartment, and the number of vocalizations were recorded. […] The step-through latency (STL-R) was recorded up to 300 s (Meunier et al., 2006, 2013; Villard et al., 2009, 2011). […] Animals showing these readouts are excluded from the calculations. […]

COc1ccc(C(=O)OC2CC3CCC(C2)N3C)cc1OC (stereo not drawn) [Convolamine, (8-methyl-8-azabicyclo[3.2.1]octan-3-yl) 3,4-dimethoxybenzoate]
inhibition at 0.1 µM (Kv channel; 0.1 µM, duplicates): 30.4% | inhibition at 1 µM (Kv channel; 1 µM, duplicates): 22.7% | inhibitions of the selective radiotracer (Kv channel; at micromolar concentrations, range given jointly for CB2, Kv, 5-HT3): 20-60% | activity on the panel of 47 receptors and ionophores (in words) [1]: inactive | hyperlocomotor response of wfs1ab^KO zebrafish larvae (in words) ([2]; 0.3-3 µM concentration-range): dose-dependently abolished | Protection index (PI) ([2]; 5 dpf larvae, 24 h exposure, 3 µM): 1.0 | hyperlocomotor response of wfs1ab^KO zebrafish (in words) ([2]; at 3 µM in fish water): completely prevented | effect of convolamine on hyperlocomotor response under co-treatment with NE-100 (in words) ([2]; co-treatment with NE-100 at 3 µM): attenuated | alteration of spontaneous alternation (in words) (Wfs1^ΔExon8 mice): significantly attenuated | Dizocilpine-induced alternation deficit (in words) ([3]; 0.1-1 mg/kg IP range, 10 min before Dizocilpine […] IP): attenuated, dose-dependently and significantly but in a bell-shaped manner | attenuating effect of Convolamine on alternation deficit under NE-100 co-treatment (in words) ([3]; Convolamine 1 mg/Kg IP with NE-100 at 1 mg/kg IP): blocked | Aβ25-35-induced deficit in the passive avoidance test (in words) [4]: not effective
